# Earlier results in US9622967B2, “Highly stable compositions of orally active nucleotide analogues or orally active nucleotide analogue prodrugs” (Sigmapharm Laboratories, LLC, priority 2010, dated 2017).
# Counter-ions that a name gives are not always drawn.
smiles,measurement,setting,value
CC(C)OC(=O)OCOP(=O)(CO[C@H](C)Cn1cnc2c(N)ncnc21)OCOC(=O)OC(C)C [tenofovir disoproxil fumarate],"monoester mono(POC)-PMPA formed, weight percentage",3 days at 60° C. and 75% RH,3.1%
same,monoester mono(POC)PMPA already formed soon after production,soon after production,up to 1.0 % w/w
